Assay results as given in PubChem BioAssay (NCI).
Where “and” joins values, the source holds several entries; their conditions need not be identical. Equal values may be shown once.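 Where inhibition never reached the appropriate level, the endpoint shown equals the highest concentration tested. Otherwise, values were interpolated linearly from a five-concentration, 48-hour dose response in 96-well plates. The concentration for 50% growth inhibition is given as GI50. TGI marks complete inhibition of growth.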

Tested on: MDA-MB-468 breast
Assay: NCI tumour cell line growth inhibition, 48 h

Structure (SMILES)	GI50	TGI
CN1CCN(c2ccc3nc(-c4c5cccccc-5[nH]c4=O)[nH]c3c2)CC1	15400 nM	34200 nM
Cc1c(C(N)=O)sc2c1c(=O)n(Cc1ccccc1)c1nnc(SCC(=O)Nc3ccc(Cl)cc3)n21	2640 nM	6880 nM
CN([O-])c1nc(N(C)[O-])nc(N2CCOCC2)n1.CN([O-])c1nc(N(C)[OH2+])nc(N2CCOCC2)n1.[Fe+3]	45400 nM	> 100000 nM
Nc1nc(N)c2cc(CNc3ccc(C(=O)NC(CC(=O)O)C(=O)O)cc3)ccc2n1 (stereo unspecified)	941 nM	
O[N+]1=CC=CCC1=S.On1ccccc1=S.[Zn]	584 nM	1600 nM
Cc1nc2cc(-n3c(-c4ccc(F)cc4)nc4ccccc4c3=O)ccc2n1Cc1ccccc1	2000 nM	4950 nM
CC(Nc1c(C#N)cnc2ccc(-c3cnc(N)nc3)cc12)c1ccccc1 (stereo unspecified)	396 nM	3340 nM
Cn1cc(C2=C(c3cn(CCSC(=N)N)c4ccccc34)C(=O)NC2=O)c2ccccc21	3190 nM	7120 nM
COc1ccc(/C=N/C2=C(C#N)C(c3ccccc3)c3c(ccc4ccccc34)O2)cc1 (stereo unspecified)	1080 nM	20500 nM
FC(F)(F)c1cccc(Nc2nc3ccccc3nc2Nc2cccc(C(F)(F)F)c2)c1	1530 nM	3560 nM
O=C1OCC2=C1C(c1cccc(Cl)c1)c1cc3c(cc1N2CCO)OCO3 (stereo unspecified)	246 nM	
COc1cccc2c1-c1ccccc1C2=O	346 nM	21300 nM
Cc1cc(Nc2cccc(F)c2)nc(NCc2ccccc2)n1	2170 nM	7750 nM
CC(C)[C@]12O[C@H]1[C@@H]1O[C@]13[C@]1(O[C@H]1C[C@H]1C4=C(CC[C@@]13C)C(=O)OC4)[C@@H]2OC(=O)CN(C)C	18.3 nM	52.4 nM
NC(=O)c1cccc(N2Cc3ccccc3OC3=C2C(=O)c2c(O)ccc(O)c2C3=O)c1	195 nM	425 nM
Cc1c2cnccc2c(C)c2c1c1cc(CO)ccc1n2C	151 nM	420 nM
Clc1ccc(/C=C2\CCCC3C2=Nc2ccccc2NC3c2ccc(Cl)cc2)cc1 (stereo unspecified)	1890 nM	4600 nM
O=C(N/N=C\c1c(O)ccc2ccccc12)C1CC1	3160 nM	8680 nM
CCCCCCCCCCCC[n+]1c(C)cc(N)c2ccccc21	206 nM	760 nM
COc1ccc2nc3cc(Cl)ccc3c(NCCCCCN3CCCCC3)c2c1	1210 nM	2580 nM

Structure (SMILES)	GI50	TGI
O=C(O)CCCn1c(SCc2c(Cl)cccc2Cl)nc2ccsc2c1=O	240 nM	> 100000 nM
O=C(Nc1cccc(-c2cccc(F)c2)c1)C1CCN(Cc2cccc3cccnc23)CC1	1760 nM	3460 nM
CCCCCCNC(=O)Nc1ccc2cc3ccc(NC(=O)NCCCCCC)cc3nc2c1	1620 nM	3730 nM
CN(C)c1ccc2nc3ccc(N)cc3[n+](-c3ccccc3)c2c1	179 nM and 1740 nM	1540 nM and 7280 nM
Cn1cc(C2=C(c3cn(CCCO)c4ccccc34)C(=O)NC2=O)c2ccccc21	2250 nM	18400 nM
COc1ccc(S(=O)(=O)Nc2cc(/C=C\c3cc(OC)c(OC)c(OC)c3)cc(OC)c2OC)cc1	42 nM	> 100000 nM
Cc1ccc(-c2cc(C(=O)N3N=C(c4ccc(N)cc4)CC3c3ccc(Cl)cc3)c3ccccc3n2)cc1 (stereo unspecified)	4910 nM	> 100000 nM
COC(=O)C(N)CSC(c1ccccc1)(c1ccccc1)c1ccccc1 (stereo unspecified)	336 nM	2740 nM
O=C(C[Si](CC(=O)c1cccc(C(F)(F)F)c1)CC(=O)c1cccc(C(F)(F)F)c1)c1cccc(C(F)(F)F)c1	2240 nM	6710 nM
C1CN1c1nc(N2CC2)nc(N2CC2)n1	4830 nM	19200 nM
CC(=O)OC[C@]1(C)C=C2C(=O)[C@](C)(O)C3(CC3)C(C)=C2[C@H]1OC(=O)N(C)CCN(C)C(=O)OC(C)(C)C	519 nM	1200 nM
CCN(CC)c1ccc(/C=C2\SC(=O)C(Nc3nnc(-c4cccnc4SCc4ccccc4)o3)C2=O)cc1 (stereo unspecified)	3230 nM	11800 nM
COC(=O)[C@@H](C[C@H](Cc1ccccc1)NC(=O)c1csc([C@@H](C[C@H](C(C)C)N(C)C(=O)[C@@H](NC(=O)[C@H]2CCCCN2C)C(C)C)OC(C)=O)n1)NC(=O)OCc1ccccc1	< 0.833 nM	< 0.833 nM
CC(=O)c1cc2c(c(O)c1C)C(=O)C(=O)c1c(O)cccc1-2	198 nM	495 nM
COc1cccc(/C=N/Nc2ncnc3c2cnn3-c2cccc(OC)c2)c1	> 25000 nM	> 25000 nM
O=C1c2ccccc2C(=O)c2c(N=Nc3[nH]c(=S)[nH]c3O)cccc21	440 nM	9340 nM
CO[C@H](C(=O)[C@@H](O)[C@@H](C)O)[C@@H]1Cc2cc3cc(O[C@H]4C[C@@H](O[C@H]5C[C@@H](O)[C@H](O)C(C)O5)[C@H](O)C(C)(O)O4)cc(O)c3c(O)c2C(=O)[C@H]1O[C@H]1C[C@@H](O[C@H]2C[C@@H](O[C@H]3C[C@@H](OC)[C@H](O)C(C)O3)[C@@H](O)C(C)O2)[C@H](O)C(C)O1 (stereo partly specified)	2930 nM	> 16800 nM
COc1ccc(/C=C/C(=O)c2cccc(B(O)O)c2)cc1O	2860 nM	21000 nM
C[C@@H](O)[C@H]1C(=O)N2C(C(=O)O)=C(SCCN=CN)C[C@H]12	1100 nM	2730 nM
